Assay results as given in patent publication US20260102383A1, “LPAR1 Inhibitors” (AbbVie Inc., priority 2024, published 2026).
Marks after values point to notes of the source that are not given here.

How the values were obtained:
[1] = test system: disease-relevant skin proteins in bleomycin-induced skin fibrosis; assay: Bleomycin-evoked skin fibrosis model, skin protein levels (ELISA, MSD U-plex); assay type: in vivo, C57B6J mice
Protocol: (§1) The activity of Compound 15 was measured using a bleomycin-evoked skin fibrosis model.
(§2) For the bleomycin model of skin fibrosis, C57B6J mice were purchased at 9 to 11 weeks of age. Upon arriving, mice were group-housed 10 per cage in individually ventilated cages, with a normal 12:12 hour light: dark cycle. Animals were acclimated to the animal facilities for a period of at least 10 days prior to initiation of bleomycin model studies; mouse ears were tagged for animal identification. At the initiation of bleomycin administration, 93M diet gel was also added to the cages of all mice and available ad libitum for the duration of the experiment. For all animals studied, food and water were available ad libitum.
(§3) The upper back region of the mouse was shaved and two circles (˜1 cm diameter) were drawn onto the skin to identify the location for bleomycin injection. To induce skin fibrosis, mice received subcutaneous injections of bleomycin (10 units/kg) or phosphate-buffered saline (PBS) during Week 1 (D0-D4) and week 2 (D7-D10) at a volume of 100 μL into the two marked injection sites (for a total volume of 200 μL). […] For pharmacological assessment, mice received either vehicle or 1×, 3×, or 10×mg/kg of a dose of Compound 15 orally, twice daily, from Day 10 to 28. On Day 28, animals were humanely euthanized, and plasma and 2 to 8 mm back skin biopsy punches collected. The ALK5 inhibitor, SB-525334 was also included in the study as a positive control. SB-525334 was administered at a dose of 4.5×mg/kg following the same dosing regimen described for Compound 15. All treatments were administered at a volume of 1×mL/kg body weight.
For protein measurement, ½ of an 8-mm biopsy punch was homogenized in 500 μL DI water containing extraction buffer and cell extraction enhancer solution, using a Bead Ruptor 24 with CryoCool (OMNI). ELISA assays were performed on the lysates to measure Fibronectin and Procollagen1a1 and a multiplexed MSD U-plex assay was performed to measure MCP-1 and CXCL1. All kits were run according to the manufacturers' instructions. Skin protein levels were normalized to total protein in the lysate and expressed per milligram of total protein.
(§4) Data from gene and protein measurements were analyzed using GraphPad Prism 7 (GraphPad Software, San Diego, CA, USA). Group comparisons were conducted by a one-way ANOVA, followed by Dunnett's multiple comparisons test.
(§5) In the subcutaneous bleomycin-induced skin fibrosis mouse model, Compound 15 was assessed after the skin fibrosis was established during Days 1 through 10. Compound 15 was administered twice daily by oral gavage from Day 10 through Day 28 as described in Table C.

[2] = test system: pro-fibrotic and pro-inflammatory genes in bleomycin-induced skin fibrosis; assay: Bleomycin-evoked skin fibrosis model, skin gene expression (TaqMan); assay type: in vivo, C57B6J mice; details: for % Inhibition by Concentration vs Bleo (mean ± SEM), Col1a1 gene / % Inhibition by Concentration vs Bleo (mean ± SEM), Col6a3 gene / % Inhibition by Concentration vs Bleo (mean ± SEM), Col8a1 gene / % Inhibition by Concentration vs Bleo (mean ± SEM), Fn1 gene / % Inhibition by Concentration vs Bleo (mean ± SEM), Lpar1 gene / % Inhibition by Concentration vs Bleo (mean ± SEM), Mmp2 gene / % Inhibition by Concentration vs Bleo (mean ± SEM), Serpine1 gene / % Inhibition by Concentration vs Bleo (mean ± SEM), Timp1 gene: skin
Protocol: as §1, §2, §3
For tissue gene expression measurement, an 8-mm skin biopsy punch was homogenized in 300 μL RLT buffer containing β-mercaptoethanol (1:100) and using a QIAgen TissueLyser II. RNA was then extracted using the RNeasy Fibrous Mini Kit and purified RNA analyzed for gene expression using TaqMan Kits (Thermofisher) with indicated probes (Table B). Expression data for each sample were normalized to the housekeeping gene (Rplp0) and expressed as fold change relative to the sham treated mice.
as §4, §5

[3] = target: T1, human LPAR1 (Homo sapiens, UniProt Q92633); assay: Arrestin assay (Arrestin Reporter EDG2-bla U2OS), inhibition of LPA-stimulated signal; assay type: cell-based; details: TangoEDG2-bla U2OS cells expressing human LPAR1; 0.25 μM LPA; read-out: Arrestin Reporter EDG2-bla U2OS Human IC50
T1 construct: host or cells: TangoEDG2-bla U2OS cells
Summary of the method: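 IC50 comes from a variable-slope 4-parameter fit of % inhibition, calculated from the beta-lactamase FRET ratio (emission 460/530 nm, excitation 409 nm, 2 h development at RT). Compounds, 10 μM down to 0.00006 μM in 3-fold steps, were given 1 h before 0.25 μM final LPA for 3 h in TangoEDG2-bla U2OS cells.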

[4] = 1x mg/kg PO BID Day 10-28, vs bleomycin/vehicle
[5] = 3x mg/kg PO BID Day 10-28, vs bleomycin/vehicle
[6] = 10x mg/kg PO BID Day 10-28, vs bleomycin/vehicle
[7] = 4.5x mg/kg PO BID Day 10-28, vs bleomycin/vehicle

T1 sequence (Q92633 whole entry): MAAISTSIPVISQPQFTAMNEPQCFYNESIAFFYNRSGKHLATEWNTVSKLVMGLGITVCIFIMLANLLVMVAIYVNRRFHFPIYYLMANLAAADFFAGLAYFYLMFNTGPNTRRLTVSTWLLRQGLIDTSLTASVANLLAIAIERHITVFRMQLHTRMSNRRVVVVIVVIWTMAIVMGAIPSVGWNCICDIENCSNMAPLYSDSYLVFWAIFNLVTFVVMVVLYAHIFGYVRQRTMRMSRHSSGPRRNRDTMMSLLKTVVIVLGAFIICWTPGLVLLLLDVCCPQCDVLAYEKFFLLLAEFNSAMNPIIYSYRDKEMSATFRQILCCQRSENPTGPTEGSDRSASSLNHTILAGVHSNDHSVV

Structure (SMILES): CC(C)c1ccnn1C1(C(=O)Nc2ccc(Cl)cc2OC(F)F)CCN(C[C@H](C(=O)O)C2CCOCC2)CC1 (single isomer, unassigned) [Compound 15]
- % Inhibition by Drug Treatment, CXCL1 protein [1, 4]: 56** %
- % Inhibition by Drug Treatment, Fibronectin protein [1, 4]: 29%
- % Inhibition by Drug Treatment, MCP-1 protein [1, 4]: 50** %
- % Inhibition by Drug Treatment, Procollagen1a1 protein [1, 4]: 67*** %
- % Inhibition by Drug Treatment, CXCL1 protein [1, 5]: 71*** %
- % Inhibition by Drug Treatment, Fibronectin protein [1, 5]: 46*** %
- % Inhibition by Drug Treatment, MCP-1 protein [1, 5]: 59** %
- % Inhibition by Drug Treatment, Procollagen1a1 protein [1, 5]: 74*** %
- % Inhibition by Drug Treatment, CXCL1 protein [1, 6]: 76*** %
- % Inhibition by Drug Treatment, Fibronectin protein [1, 6]: 46*** %
- % Inhibition by Drug Treatment, MCP-1 protein [1, 6]: 73*** %
- % Inhibition by Drug Treatment, Procollagen1a1 protein [1, 6]: 77*** %
- key measures of skin inflammation and fibrosis ([2]; mice, 1×, 3×, and 10×mg/kg): significantly reduced
- % Inhibition by Concentration vs Bleo (mean ± SEM), Col1a1 gene ([2]; 1x mg/kg PO BID Day 10-28): 58 ± 12 %
- % Inhibition by Concentration vs Bleo (mean ± SEM), Col6a3 gene ([2]; 1x mg/kg PO BID Day 10-28): 62 ± 24%
- % Inhibition by Concentration vs Bleo (mean ± SEM), Col8a1 gene ([2]; 1x mg/kg PO BID Day 10-28): 16 ± 23%
- % Inhibition by Concentration vs Bleo (mean ± SEM), Fn1 gene ([2]; 1x mg/kg PO BID Day 10-28): 31 ± 20%
- % Inhibition by Concentration vs Bleo (mean ± SEM), Lpar1 gene ([2]; 1x mg/kg PO BID Day 10-28): 54 ± 24%
- % Inhibition by Concentration vs Bleo (mean ± SEM), Mmp2 gene ([2]; 1x mg/kg PO BID Day 10-28): 39 ± 26%
- % Inhibition by Concentration vs Bleo (mean ± SEM), Serpine1 gene ([2]; 1x mg/kg PO BID Day 10-28): 28 ± 31%
- % Inhibition by Concentration vs Bleo (mean ± SEM), Timp1 gene ([2]; 1x mg/kg PO BID Day 10-28): 34 ± 21%
- % Inhibition by Concentration vs Bleo (mean ± SEM), Col1a1 gene ([2]; 3x mg/kg PO BID Day 10-28): 77 ± 8 %
- % Inhibition by Concentration vs Bleo (mean ± SEM), Col6a3 gene ([2]; 3x mg/kg PO BID Day 10-28): 108 ± 9 %
- % Inhibition by Concentration vs Bleo (mean ± SEM), Col8a1 gene ([2]; 3x mg/kg PO BID Day 10-28): 43 ± 14%
- % Inhibition by Concentration vs Bleo (mean ± SEM), Fn1 gene ([2]; 3x mg/kg PO BID Day 10-28): 76 ± 5 %
- % Inhibition by Concentration vs Bleo (mean ± SEM), Lpar1 gene ([2]; 3x mg/kg PO BID Day 10-28): 97 ± 9 %
- % Inhibition by Concentration vs Bleo (mean ± SEM), Mmp2 gene ([2]; 3x mg/kg PO BID Day 10-28): 81 ± 15 %
- % Inhibition by Concentration vs Bleo (mean ± SEM), Serpine1 gene ([2]; 3x mg/kg PO BID Day 10-28): 88 ± 5 %
- % Inhibition by Concentration vs Bleo (mean ± SEM), Timp1 gene ([2]; 3x mg/kg PO BID Day 10-28): 81 ± 7 %
- % Inhibition by Concentration vs Bleo (mean ± SEM), Col1a1 gene ([2]; 10x mg/kg PO BID Day 10-28): 88 ± 6 %
- % Inhibition by Concentration vs Bleo (mean ± SEM), Col6a3 gene ([2]; 10x mg/kg PO BID Day 10-28): 117 ± 8 %
- % Inhibition by Concentration vs Bleo (mean ± SEM), Col8a1 gene ([2]; 10x mg/kg PO BID Day 10-28): 55 ± 11 %
- % Inhibition by Concentration vs Bleo (mean ± SEM), Fn1 gene ([2]; 10x mg/kg PO BID Day 10-28): 75 ± 4 %
- % Inhibition by Concentration vs Bleo (mean ± SEM), Lpar1 gene ([2]; 10x mg/kg PO BID Day 10-28): 95 ± 8 %
- % Inhibition by Concentration vs Bleo (mean ± SEM), Mmp2 gene ([2]; 10x mg/kg PO BID Day 10-28): 55 ± 12%
- % Inhibition by Concentration vs Bleo (mean ± SEM), Serpine1 gene ([2]; 10x mg/kg PO BID Day 10-28): 75 ± 9 %
- % Inhibition by Concentration vs Bleo (mean ± SEM), Timp1 gene ([2]; 10x mg/kg PO BID Day 10-28): 84 ± 5 %
- IC50 [3]: 47.8 nM

Structure (SMILES): Cc1cccc(-c2[nH]c(C(C)(C)C)nc2-c2ccc3nccnc3c2)n1 [SB-525334, reference compound]
- % Inhibition by Drug Treatment, CXCL1 protein [1, 7]: 49* %
- % Inhibition by Drug Treatment, Fibronectin protein [1, 7]: 82*** %
- % Inhibition by Drug Treatment, Procollagen1a1 protein [1, 7]: 69*** %
- % Inhibition by Drug Treatment, MCP-1 protein ([1]; PO BID Day 10-28, vs bleomycin/vehicle): 17%
